Patent US8729053B2, “Nuclear factor kappa B pathway inhibitor composition and use of same” (The United States of America, as represented by the …, priority 2008, dated 2014)
Counter-ions that a name gives are not always drawn.

Tests used:
[1] = tested on: AP-1; assay: EMSA of AP-1 DNA binding, HEK293 nuclear fractions; type: cell-based; details: 17 μM
Protocol: EMSA was performed with the nuclear fraction of HEK293 cell using LightShift Chemiluminescent EMSA Kit (Pierce Biotechnology, Rockford, Ill.) according to the manufacture's instruction. Oligonucleotides for NFκB, NF-1, and AP-1 were labeled with biotin by Biotin 3′ End DNA labeling Kit (Pierce Biotechnology, Rockford, Ill.). The quantified 15 μg of nuclear extracts were incubated for 20 mins with 1 μg/μl Poly (dI.dC), biotin end-label target nucleotides in 20 μl binding buffer DNA-protein complexes were fractionated on 6% a polyacrylamide gel and transferred to a nylon membrane. The membranes were processed to detect biotin-label DNA by cross-linking, blocking, and detection incubations. Results were obtained by X-ray film exposure for 10 sec and development. The target sequences of oligonucleotides for NFκB, NF-1, and AP-1 are as follows;
To determine whether the effect of compound I on nuclear translocation of NFκB leads to inhibited binding of NFκB proteins to DNA, EMSA in HEK293 cells was performed. […] TPA-induced binding complex was attenuated by pretreatment with compound I in a dose-dependent manner (lanes 5-9). This binding inhibition parallels the inhibition of luciferase reporter transactivation and inhibition of nuclear translocation of NFκB proteins. […]

[2] = tested on: VEGF promoter; assay: VEGF promoter luciferase reporter assay in HEK293 cells; type: cell-based, human; details: TPA 10 ng/ml 18 hours
Protocol: All expression plasmids were transiently transfected into HEK293 cells in a 96-well plate (0.1 μg/well) by using Effectene transfection reagent (Qiagen, Valencia, Calif.) according to the manufacturer's manual. HEK293 cells were maintained in Dulbecco's modified Eagle medium (Sigma, St. Louis, Mo.) supplemented with 10% fetal bovine serum (Atlanta Biologicals, Lawrenceville, Ga.) and incubated at 37° C. in a 5% CO2 incubator. After 24 hrs incubation, the medium was changed to DMEM with 0.2% FBS, and the transfectants were exposed to various concentrations of compound I and TPA (10 ng/ml). Cells were lysed with passive lysis buffer and the luciferase assay was performed using the Firefly-Luciferase reporter assay system (Promega, Madison, Wis.) and MLX Luminometer (Dynex Technology, Chantilly, Va.).
Three different luciferase reporter genes, AP-1 reporter containing four times TRE consensus originated from GCN4 and SRE reporter purchased from Stratagene (La Jolla, Calif.) respectively are as described previously (Suzukawa et al., Environ. Health Perspect., 2002, 110, 865-70). […]
Inhibition of NFκB transactivation would be expected to result in suppressed expression of genes whose transcription depends on NFκB. Quantitative RT-PCR was used to measure endogenous levels of IL-6 mRNA, transcribed from a gene whose transcription depends on NFκB but not AP-1. […]

[3] = tested on: IκBα; assay: Phosphorylated IκBα levels in TPA treated breast cancer cell lines; type: cell-based; details: TPA treated MCF-7, T47D, MDA-MB-231
Protocol: In order to evaluate the potential therapeutic activity of the compound, tests for the biological activity of compound I were performed. The compound is non-toxic to MCF-7, T47D, and MDA-MB-231 breast cancer cells as estimated by XTT assay at 10 μM. To determine the effects of compound I on invasion by breast cancer cell lines, a matrigel invasion assay was used. The levels of phosphorylated IκBα were confirmed in TPA treated ER-positive (MCF-7 and T47D) and ER-negative (MDA-MB-231) breast cancer cell lines and compared the levels to those after pretreatment with compound I. Although induced levels of phosphorylated IκBα varied with the cell line, IκBα phosphorylation was eliminated by compound I treatment in all three breast cancer cell lines. Compound I also produced no effect on the estrogen receptor activity in the ER-positive breast cancer cells using ERE promoter luciferase reporter assay. Invasion capacity of breast cancer cells was increased by TPA stimulation compared to DMSO treated vehicle control. […] Following anchorage-independent colony induction in TPA-treated cells without or with compound I, colonies were lysed and measured with CyQuant GR Dye to detect DNA by fluorescence plate reader as a measure of colony count. Total transformed colony numbers were calculated from RFU and cell dose curve of JB6 cells. […]

- AP-1 DNA binding activity [1]: little or no effect
Structure (SMILES): Cc1cc(N)ccc1N=Nc1ccc(S(=O)(=O)CCOS(=O)(=O)O)cc1 [compound I, 2-(4-((4-amino-2-methylphenyl)diazenyl)phenylsulfonyl)ethyl hydrogen sulfate]
- Luciferase activity driven by VEGF promoter [2]: did not significantly affect
- IκBα phosphorylation in breast cancer cell lines [3]: eliminated
